From patent US20160045472A1, “UROLITHIN B FOR MUSCLE GROWTH” (PROCELL SPRL, priority 2013, published 2016)

Columns and labels:
[1] = system: C2C12 murine skeletal muscle myoblasts; assay: diameter of C2C12 myotubes (anti-desmin labelling); type: cell-based; conditions: for mean diameter size of myotubes: C2C12 myotubes, urolithin B 15 μM 24 h, TNF-alpha 10 ng/mL 4 h, leucine 5 mM
Experimental: The inventors selected C2C12 murine skeletal muscle myoblasts for measuring the effect of polyphenols on muscle metabolism, especially when submitted to inflammatory stress (e.g. upon TNF-alpha exposure). In these conditions, anabolism is blocked.
C2C12 myoblasts were differentiated for 4 days using 1% horse serum and 1% penicillin/streptomycin. The cells were thereafter grown for 24 h either with the same differentiation medium or with the differentiation medium supplemented with 15 μM urolithin B (conditions 5-8 of FIGS. 2-4 and of Table 1). Then the cells were grown either with the same differentiation medium or in the differentiation medium supplemented with 10 ng/mL TNF-alpha for 4 h (conditions 3-4 and 7-8 of FIGS. 2-4 and of Table 1). Thereafter, the cells were grown either with the same differentiation medium or in the differentiation medium supplemented with 5 mM leucine (conditions 2, 4, 6 and 8 of FIGS. 2-4 and of Table 1). The myotubes were labelled using anti-desmin antibodies, and nuclei labelling by Hoechst staining. Urolithin B consistently stimulates the diameter of myotubes.

mTOR = mTOR phosphorylation; type: cell-based
From the text: The inventors then have measured mTOR phosphorylation again to reflect protein synthesis and have observed a marginal leucine-induced phosphorylation and a strong urolithin B-induced phosphorylation.

androgen receptor = androgen receptor agonism (concluded from bicalutamide blockade); type: cell-based
From the text: Finally, the inventors have measured the effect of rapamycin, on another mTOR inhibitor and of the anti-androgen bicalutamide (FIGS. 5-6 show the effect on the size of the muscular fibres) on the urolithin B-induced effects (including on the phosphorylation on mTOR, of AMPK, . . . ) and conclude that urolithin B acts upon binding and activating the androgen receptor, then by releasing the AMPK-inhibition on mTOR, increases protein synthesis in muscle cells, then the diameter of muscle fibres.

P70S6k = P70S6k phosphorylation; type: cell-based
[2] = system: breast and on prostate cancer cell lines; conditions: cited from earlier work
[3] = compared with urolithins A, C and D and whole polyphenol extract; cited from earlier work
[4] = human patients fed with pomegranate extract; compared with urolithin A; cited from earlier work
PRAS40 = PRAS40 phosphorylation; type: cell-based
From the text: (§1) The inventors then have measured Akt and PRAS40 phosphorylation still to analyse possible metabolism pathways. However, besides a tendency of synergy between the leucine and urolithin B addition, no major difference in phosphorylation patterns were observed.

C2C12 myoblasts = assay: toxicity of urolithin B addition; type: cell-based, murine; conditions: concentrations of up to 40 μM
Experimental: The inventors have firstly measured if the addition of urolithin B presents some toxicity, but no toxicity was measured for concentrations of up to 40 μM.

Akt = Akt phosphorylation; type: cell-based
From the text: as §1

AMPK = AMPK phosphorylation; type: cell-based
denervated muscle = assay: weight loss of denervated muscle, intravenous; type: in vivo; conditions: mammal

Molecule: CC(C)C[C@H](N)C(=O)O [Leucine, leucine]
- mean diameter size of myotubes [1]: 25.5
- mTOR phosphorylation (mTOR): marginal

Molecule: O=c1oc2cc(O)ccc2c2ccc(O)cc12 [urolithin A, reference compound]
- androgen-receptor agonist (androgen receptor): not
- induction of P70S6k phosphorylation (P70S6k): almost no induction
- anti cancer activity [2]: direct anti cancer activity
- size of myotubes ([1]; up to 10 μM urolithin A, vs control): does not increase

Molecule: O=c1oc2cc(O)ccc2c2ccccc12 [urolithin B]
- antioxidant and anti-inflammatory properties [3]: much weaker
- amount in the blood [4]: much lower
- androgen-receptor agonist (androgen receptor): agonist
- PRAS40 phosphorylation (PRAS40): does not induce
- anti cancer activity [2]: direct anti cancer activity
- mean diameter size of myotubes [1]: 32.6
- size of myotubes ([1]; urolithin B at 15 μM): significantly increased
- toxicity (C2C12 myoblasts): no toxicity
- Akt phosphorylation (Akt): does not induce
- AMPK phosphorylation (AMPK): strong reduction
- mTOR phosphorylation (mTOR): strong
- weight loss of denervated muscle (denervated muscle): prevents

Molecule: TNFa
- mean diameter size of myotubes [1]: 16.7
